In patent publication EP1541694A1, “Methods of identifying, selecting and/or characterizing compounds which modulate the activity of a Src family kinase” (Sirenade Pharmaceuticals AG, priority 2003, dated 2005):

Key:
Type in all cases: cell-based, human
ZM75.7 (Src) = assay: MTS and ATP cell viability/metabolic activity assays, suppression of tet-induced reduction; conditions: 3 days after tet/compound addition
Text: To proof the concept of the assay platform according to the invention in a quantitative manner with a highly parallel readout, the following cell viability / metabolic activity assays from Promega according to the manufacturer's protocols: "CellTiter 96 AQueous One Solution Cell Proliferation Assay (MTS)", CellTiter-Blue™ Cell Viability Assay (CTB), and the ATP-status assay "CellTiter-Glo Luminescent Cell Viability Assay" (ATP) were used to obtain quantitative values reflecting (aspects of) the phenotype changes.
The cells were seeded into white-walled/ clear bottom 96-well plates ["MICROTEST" by Falcon, cat.no. […] Measurements were taken 1,2 and 3 days later using the Wallac Victor^2™ multilabel plate reader (Perkin Elmer). Absorbance was measured at 490nm (MTS). Luminescence mode was used for the ATP assay. For CTB fluorescence excitation wavelength was 550nm (filter: 550(20)nm), emission wavelength was 590 nm (filter: 590(20)nm). […]
Three more parameters reflecting the effects of compounds on cell viability/metabolic activity in these assays are indicated in Tab.3 and Tab.4: Toxicity reflects the nonspecific (i.e. irrespective of tet-induced Src/ Src mutant expression) effects of a compound on the viability/ metabolic activity of the cells. It is calculated as toxicity=1-mean(-tet, compound)/mean(-tet,(DMSO)). […]

[1] = tested on: Src-YF expressing ZM77 cell lines; assay: Suppression of tet-induced phenotype changes (cell scattering) in suspension, Ultra Low Attachment plates; conditions: Ultralow Attachment Plates
Method: (§1) Cells were seeded into 24-well or 96-well "Ultra Low Attachment" plates (cat.no.: 3473, Costar Corning Corp., Acton, MA, USA). These plates are coated with a covalently bound hydrogel layer that prevents cellular attachment to the polystyrene surface of the wells. As the cells were not attached to these wells, a medium change was impossible here. However, the phenotypes were tested in full serum-containing medium in the absence or presence of EGF, PDGF-BB or HGF as detailed above. Tet-induction was also started the day after seeding.
(§2) Largely irrespective of the cell numbers per well, the cells of all cell lines were in suspension and formed one or few very condensed/compact, opaque, rod-, disc- or kidney-shaped aggregates with a smooth surface, in which individual cells could not be discerned. Phenotype changes became apparent ~24 h after tet induction in ZM77 and ZM170 cell lines only, and Δpt(-tet →+tet)max was reached after ~2 days. In these cell lines Src-YF or Src-TQ/YF expression, respectively, induces scattering of the cells. Many cells are floating in the medium individually or in small clusters and the remaining large aggregate(s) are irregular-shaped and rather loose than compact; individual cells can easily be discerned and thus, the surfaces of these aggregates are rough as with bunches of grapes (Fig.14a,b). This biological response was readily observed with or without any of the above growth factors, wherefore normal growth medium without any additional growth factor was subsequently used in this assay type.
(§3) To that end, the test compounds PP1-Chr., SU6656 and PP2 were individually added to the cells together with tet, and the development of the phenotype changes in the presence of these compounds was monitored subsequently in direct comparison with tet-induced cells that received no compound (Fig.14c-j). The compounds were also added to the cells without tet-induction of Src/ Src mutant expression as controls for non-specific/ toxicity effects. The experiments were performed with several ZM77 cell lines.

[2] = tested on: Src-TQ/YF expressing cell line ZM170.21; assay: as above; conditions: ZM170.21 (Src-TQ/YF) in suspension, Ultralow Attachment Plates
Method: as §1, §2, §3

CC(C)(C)n1nc(-c2ccc(Cl)cc2)c2c(N)ncnc21 [PP2]
suppression effects on ZM75.7 (ZM75.7 (Src)): detected
suppression of tet-induced phenotype changes (cell scattering) [1]: partially suppressed
suppression of tet-induced phenotype (cell scattering) [2]: largely ineffective
